Type in all cases: functional
In assay [1] the test system is Dendroctonus ponderosae. In words: Insecticidal activity against adult Dendroctonus ponderosae assessed as mortality applied topically on the ventral surface of insect mesothorax after 12 hr. As to conditions: topical.
The test system of assay [2] is Dendroctonus ponderosae. In words: Insecticidal activity against adult Dendroctonus ponderosae assessed as mortality applied topically to ventral surface of insect mesothorax after 24 hr.
The test system of assay [3] is Dendroctonus ponderosae. In words: Insecticidal activity against adult male Dendroctonus ponderosae assessed as mortality after 24 hr by filter paper assay.
In assay [4] the test system is Dendroctonus ponderosae. In words: Insecticidal activity against adult female Dendroctonus ponderosae assessed as mortality applied topically to ventral surface of insect mesothorax after 24 hr.
For assay [5], the system named is Dendroctonus ponderosae. As to the kind of experiment: Insecticidal activity against adult Dendroctonus ponderosae assessed as mortality after 12 hr by filter paper assay.
The subject of assay [6] is Dendroctonus ponderosae. As to the kind of experiment: Insecticidal activity against adult male Dendroctonus ponderosae assessed as mortality applied topically to ventral surface of insect mesothorax after 24 hr.
In assay [7] the test system is Dendroctonus ponderosae. As to the kind of experiment: Insecticidal activity against adult female Dendroctonus ponderosae assessed as mortality after 24 hr by filter paper assay.
Assay [8] has as its system Dendroctonus ponderosae. As to the kind of experiment: Insecticidal activity against adult Dendroctonus ponderosae assessed as mortality after 24 hr by filter paper assay.
Where [9] appears, read: Dendroctonus ponderosae, topical, 24 h, read-out: LC50.
[10] abbreviates: Dendroctonus ponderosae, 24 h, read-out: LC50.

Each structure is given as a SMILES string. ≈ marks a conversion by molar mass, not a printed value. Where “and” joins values, the source holds several entries; their conditions need not be identical. Equal values may be shown once. Calls of active or inactive are those of the source. The rule behind the calls is not given here.

Broadly, the LC50 is the concentration lethal to half of the exposed cells or organisms. As to `CNC(=O)c1cc(Cl)cc(C)c1NC(=O)c1cc(Br)nn1-c1ncccc1Cl` [CHLORANTRANILIPROLE], the LC50 in the assay on Dendroctonus ponderosae [1] was determined as 6300 mg/L (≈ 13000 µM); with Dendroctonus ponderosae [2] (setting [9]) it was 1380 mg/L (≈ 2870 µM); with Dendroctonus ponderosae [3] (setting [10]), 11 mg/L (≈ 22.8 µM); with Dendroctonus ponderosae [4] (setting [9]) it was 1110 mg/L (≈ 2300 µM); with Dendroctonus ponderosae [6] (setting [9]), 1750 mg/L (≈ 3620 µM); in the assay with Dendroctonus ponderosae [7], 72.7 mg/L (≈ 150 µM). In addition, the LC50 in the assay on Dendroctonus ponderosae [8] (setting [10]) turned out to be 34.9 mg/L (≈ 72.2 µM). In addition, the LC50 result in the assay on Dendroctonus ponderosae [5] is “inactive”.

As for `CNC(=O)c1cc(C#N)cc(C)c1NC(=O)c1cc(Br)nn1-c1ncccc1Cl` [CYANTRANILIPROLE], the LC50 in the assay with Dendroctonus ponderosae [2] amounted to 141.5 mg/L (≈ 299 µM); with Dendroctonus ponderosae [2] (setting [9]), 271 mg/L (≈ 571 µM); with Dendroctonus ponderosae [3], 1.7 mg/L (≈ 3.59 µM); in the assay with Dendroctonus ponderosae [3] (setting [10]) it was 3.4 mg/L (≈ 7.18 µM); with Dendroctonus ponderosae [4], 164.8 mg/L (≈ 348 µM); in the assay with Dendroctonus ponderosae [4] (setting [9]), 258 mg/L (≈ 544 µM). The LC50 with Dendroctonus ponderosae [5] is 46.1 mg/L (≈ 97.3 µM); with Dendroctonus ponderosae [5] (Dendroctonus ponderosae, 12 h, read-out: LC50), 56.8 mg/L (≈ 120 µM); in the assay with Dendroctonus ponderosae [6], 301.5 mg/L and 102 mg/L; with Dendroctonus ponderosae [8], 3 mg/L and 6.2 mg/L.

The values above are taken from ChEMBL document CHEMBL3046836, “Laboratory assays of select candidate insecticides for control of Dendroctonus ponderosae” (2011).
